# Tested on: mouse embryonic fibroblasts (MEF)
# Assay: tunicamycin ER stress response in MEFs (XBP-1 models)
# Assay type: cell-based
# Method: ER stress responses in XBP-1s overexpressing cells, XBP-1^−/− cells and their controls. (A) Induction of XBP-1s expression upon removal of doxycycline in mouse embryonic fibroblasts (MEF). (B) Southern blot analysis of XBP-1^−/− MEF cells and their WT controls for the wild type (9.4 kb) and targeted (6.5 kb) alleles. (C) PERK phosphorylation (p-PERK) and JNK activity in the XBP-1s overexpressing cells and their control cells (−Dox and +Dox, respectively) upon tunicamycin treatment (Tun, 2 μg/ml). (D) PERK phosphorylation and JNK activity upon low dose tunicamycin treatment (Tun, 0.5 μg/ml) in XBP-1^−/− MEF cells and their WT controls. (E) IRS-1 Ser307 phosphorylation upon tunicamycin treatment (Tun, 2 μg/ml) in the XBP-1s overexpressing and the control cells (−Dox and +Dox, respectively), detected using immunoprecipitation (IP) of IRS-1 followed by immunoblotting (IB) with an IRS-1 phosphoserine 307-specific antibody. […] The ratio of IRS-1 tyrosine phosphorylation to total IRS-1 level was summarized from independent experiments and was presented in the graph. (G) IRS-1 Ser307 phosphorylation upon tunicamycin treatment (Tun, 0.5 μg/ml) in XBP-1^−/− cells and WT controls was detected as described in […]. […] (H) Insulin-stimulated tyrosine phosphorylation of IRS-1 in XBP-1^−/− and WT control cells with or without tunicamycin treatment (Tun, 0.5 μg/ml). The ratio of IRS-1 tyrosine phosphorylation to total IRS-1 level was summarized from independent experiments and presented in the graph. All graphs show mean±SEM from at least 2 independent experiments and statistically significance from the controls is indicated by * with p<0.005.
# The transcription factor XBP-1 is a bZIP protein. The spliced or processed form of XBP-1 (XBP-1s) is a key factor in the transcriptional regulation of molecular chaperones and enhances the compensatory UPR (Calfon et al., Nature 415, 92 (2002); Shen et al., Cell 107:893 (2001); Yoshida et al., Cell 107:881 (2001); Lee et al., Mol. Cell Biol. 23:7448 (2003); each of which is incorporated herein by reference). We therefore reasoned that modulation of XBP-1s levels in cells should alter insulin action via its potential impact on the magnitude of the ER stress responses. To test this possibility, we established XBP-1 gain- and loss-of-function cellular models. First, we established an inducible gene expression system where exogenous XBP-1s is expressed only in the absence of tetracycline/doxycycline (FIG. 13A). In parallel, we also studied MEFs derived from XBP-1^−/− mouse embryos (Lee et al., Mol. Cell Biol. 23, 7448 (2003); A. M. Reimold et al., Genes Dev. 14, 152 (2000); Reimold et al., Nature 412, 300 (2001); each of which is incorporated herein by reference) (FIG. 13B). […] Upon induction of XBP-1s expression, there was a dramatic reduction in both PERK phosphorylation and JNK activation following tunicamycin treatment (FIG. 13C). […] Thus alterations in the levels of cellular XBP-1s protein result in alterations in the ER stress response.
# Cells: Rat Fao liver cells were cultured with RPMI 1640 (Gibco, Grand Island, N.Y.) containing 10% fetal bovine serum (FBS). At 70-80% confluency, cells were serum depleted for 12 hours before starting the experiments. Reagents including tunicamycin, thapsigargin, and JNK inhibitors were gently added to the culture dishes in the incubator to prevent any environmental stress. JNK inhibitors were added 1 hour before tunicamycin/thapsigargin treatment. The XBP-1^−/− mouse embryonic fibroblasts (MEF) (A. H. Lee, N. N. Iwakoshi, L. H. Glimcher, Mol. Cell. Biol. 23:7448 (2003); incorporated herein by reference), IRE-1α^−/− MEF cells (kindly provided by Dr. David Ron, New York University School of Medicine), and their wild type controls were cultured in Dulbecco's Modified Eagle Medium (DMEM) (Gibco, Grand Island, N.Y.) containing 10% FBS. A similar protocol was followed for experiments in MEF cells, except that the cells were serum depleted for only 6 hours. […]
# [1] = fibroblasts without exogenous XBP-1s expression, 2 μg/ml
substance,measurement,setting,value
tunicamycin,ER stress,"WT cells, low dose 0.5 μg/ml",failed to stimulate significant ER stress
same,ER stress response,"XBP-1−/− MEFs, low dose 0.5 μg/ml",strong ER stress response
same,PERK phosphorylation,[1],strong PERK phosphorylation
same,"PERK phosphorylation, peak",[1],3 to 4 h
same,"PERK phosphorylation, start",[1],30 min
same,activation of JNK,[1],rapid and robust activation
